Reference: US12076444B2, “Methods and systems for depositing active ingredients on substrates” (Purdue Research Foundation, priority 2015, dated 2024)
Where two headings read alike, the source gives them in different places.

Key:
[1] = API particle skeletal (true) density, helium gas pycnometry; assay type: physicochemical; details: mean of four powder samples, ambient about 22° C.
Description: The AccuPyc II 1340 Gas Displacement Pycnometry System (Micromeritics Instrument Corporation, Norcross, Ga.) was used to determine the skeletal density of the micronized acetaminophen powder. The AccuPyc II 1340 instrument determines the volume occupied by powder sample, and with knowledge of the sample mass (determined on a XS105 DualRange (Mettler Toledo, Switzerland)) the skeletal density is calculated; purge cycles function to clear the chamber of residual volatile species and occur prior to the measurement cycles. Helium gas was used as the measurement gas, and the following instrument specifications were used in each powder sample: 10 purges (purge fill pressure 19.5 psig), 10 cycles (cycle fill pressure 19.5 psig), pressure equilibration rate 0.0050 psig/min, 3.5 cm^3 cell volume. Performed at ambient conditions of 22° C. and 52% relative humidity, the density reported here corresponds to the mean value obtained from measurement of four powder samples. The density of micronized acetaminophen powder was determined to be 1.3285 g/cm^3.
(§1) Skeletal density was determined by the same procedure described in Example 31; testing was performed at ambient conditions of 22° C. and 51% relative humidity. The density reported here corresponds to the mean value obtained from measurement of four powder samples; the density of semi-fine acetaminophen powder was determined to be 1.3274 g/cm^3.
as §1, with “22.6°” for “22°”, “53%” for “51%”, “mefenamic acid” for “semi-fine acetaminophen”, “1.2706 g/cm^3” for “1.3274 g/cm^3.”

[2] = API powder bulk density, tapped density tester; assay type: physicochemical
Description: In order to determine the solid volume fractions under which the mixtures of the micronized acetaminophen powder and NEOBEE® 895 would flow as a suspension, bulk density measurements were taken using the 350 Tapped Density Tester (Agilent Technologies, Santa Clara, Calif.), housed in an acoustic cabinet. The test was performed in accordance with ASTM standard D7481-09 (equivalent to USP Method 1) using a 100 mL graduated cylinder with drop height of 14±2 mm at a rate of 300 drops per minute. The mass of the powder sample was determined on a MS8001S NewClassic MF (Mettler Toledo, Switzerland) resulting in a bulk density of 0.36 g/cm^3 after 6000 taps, measured at 21.9° C. and 40% relative humidity.
Bulk density was determined by the same procedure described in Example 32; testing was performed at 22.1° C. and 45% relative humidity.

[3] = API particle size, static image analysis (Malvern Morphologi G3-ID); assay type: physicochemical; details: dry powder
Description: The micronized acetaminophen particle size distribution was obtained using the Malvern Morphologi G3-ID, which employs static image analysis to determine morphology. Powder samples of 7 mm^3 were obtained using a standard scoop, transferred to the attached dispersion unit (operated with 0.1 bar pressure and 60 second dispersion cycle) and analyzed at 20× magnification.
Particle morphology was determined in the same manner described in Example 33, but at a magnification of 5×.

[4] = Raman microscopy of dosage forms; assay type: physicochemical
Description: After deposition of the drops onto the film, the crystal structure of the mevastatin-PEG 3350 melt formulations were analyzed with a Raman RXN1 Microprobe (Kaiser Optical Systems, MI). First the spectra of pure mevastatin and PEG 3350 solid dispersions were obtained. Mevastatin and PEG 3350 powders were heated above their melting temperatures, to 152° C. and 60° C., respectively. The melts of pure mevastatin and pure PEG 3350 were solidified at room temperature and then analyzed to obtain the spectra of pure compounds. The spectra of the melt formulation consisting of 15% mevastatin and 85% PEG 3350 were obtained by analyzing the drops of the melt formulation deposited using the dropwise additive manufacturing process.
A Thermo Scientific DRX Raman Microscope equipped with a 532 nm laser is used to analyze the solid state form of the drug present in the melt formulations. First, the spectra of pure crystalline celecoxib and gelucire 44/14 solid dispersion are obtained. Pure celecoxib and pure gelucire 44/14 are analyzed to obtain the spectra of pure compounds. […]
The form of celecoxib in the dosage forms is analyzed with a Raman microscope to investigate the effect of gelucire on crystallization of celecoxib within the deposits.

[5] = 15% naproxen 85% PEG 3350 melt dosage forms

| Structure (SMILES) | Skeletal (true) density [1] | Bulk density ([2]; after 6000 taps) | Sauter mean diameter [3] | d90 [3] | Physical form of the drug in the dosage forms (Raman) ([4]; 15% mevastatin 85% PEG 3350 melt dosage forms) | Physical form of the drug in the dosage forms (Raman) [4, 5] | Physical form of the drug in the dosage forms (X-ray diffraction) [5] | Physical form of the drug in the dosage forms (X-ray diffraction) (15% naproxen 85% Pluronic F38 melt dosage forms) | Bulk density ([2]; after 8000 taps) |
| --- | --- | --- | --- | --- | --- | --- | --- | --- | --- |
| Cc1cccc(Nc2ccccc2C(=O)O)c1C [mefenamic acid] | 1.2706 g/mL | 0.7423 g/mL | 88.83 μm | 400.5 μm | – | – | – | – | – |
| CC[C@H](C)C(=O)O[C@H]1CCC=C2C=C[C@H](C)[C@H](CC[C@@H]3C[C@@H](O)CC(=O)O3)[C@H]21 [mevastatin] | – | – | – | – | crystalline | – | – | – | – |
| CC(=O)Nc1ccc(O)cc1 [micronized acetaminophen, acetaminophen (paracetamol)] | 1.3285 g/mL | 0.36 g/mL | 22.05 μm | 75.29 μm | – | – | – | – | – |

More lines, now with the values ahead:

| Skeletal (true) density [1] | Bulk density ([2]; after 6000 taps) | Sauter mean diameter [3] | d90 [3] | Physical form of the drug in the dosage forms (Raman) ([4]; 15% mevastatin 85% PEG 3350 melt dosage forms) | Physical form of the drug in the dosage forms (Raman) [4, 5] | Physical form of the drug in the dosage forms (X-ray diffraction) [5] | Physical form of the drug in the dosage forms (X-ray diffraction) (15% naproxen 85% Pluronic F38 melt dosage forms) | Bulk density ([2]; after 8000 taps) | Structure (SMILES) |
| --- | --- | --- | --- | --- | --- | --- | --- | --- | --- |
| – | – | – | – | – | crystalline | crystalline | crystalline | – | COc1ccc2cc([C@H](C)C(=O)O)ccc2c1 [naproxen] |
| 1.3274 g/mL | – | 47.66 μm | 208.8 μm | – | – | – | – | 0.46 g/mL | CC(=O)Nc1ccc(O)cc1 [semi-fine acetaminophen, acetaminophen (paracetamol)] |
